Here are results for 30 compounds from patent US20120065187A1 (ALCON RESEARCH, LTD, priority 2008, published 2012).

Usually EC50 stands for the concentration needed to bring the measured effect to its halfway point.

Molecules are shown by their SMILES. Bounds are passed on as bounds.

One assay concerns the target T1, human H4 (Homo sapiens, UniProt Q9H3N8).
T1 construct: host or cells: CHO-K1
The experiment in a line: In vitro histamine receptor cell-based assay (aequorin bioluminescence), H4 antagonism. The conditions noted are these: CHO-K1 cells expressing human H4, aequorin and Gα16; histamine at EC80; read-out: H4 Antagonist EC50. The method, boiled down: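 CHO-K1 cells stably expressing human H4, Gα16 and mitochondrial aequorin, loaded with 5 μM coelenterazine-h, preincubated 15 min at room temperature with compound, then challenged with histamine at EC80.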

A further assay addresses T2, human H1 (Homo sapiens, UniProt P35367).
T2 construct: host or cells: CHO-K1
The experiment in a line: In vitro histamine receptor cell-based assay (aequorin bioluminescence), H1 antagonism. The conditions noted are these: CHO-K1 cells expressing human H1 and aequorin; histamine at EC80; read-out: H1 Antagonist EC50. As to the method:
The cell-based assays utilize an aequorin dependent bioluminescence signal. Doubly-transfected, stable CHO-K1 cell lines expressing human H1 or H4, mitochondrion-targeted aequorin, and (H4 only) human G protein Gα16 are obtained from Perkin-Elmer. Cells are maintained in F12 (Ham's) growth medium, containing 10% (vol./vol.) fetal bovine serum, penicillin (100 IU/mL), streptomycin (0.1 mg/mL), zeocin (0.25 mg/mL) and geneticin (0.40 mg/mL). Cell media components are from Invitrogen, Inc. One day prior to assay, the growth medium is replaced with the same, excluding zeocin and geneticin.
For assay preparation, growth medium is aspirated, and cells are rinsed with calcium-free, magnesium-free phosphate-buffered saline, followed by two to three minute incubation in Versene (Invitrogen, Inc.) at 37° C. Assay medium (DMEM:F12 [50:50], phenol-red free, containing 1 mg/mL protease-free bovine serum albumin) is added to collect the released cells, which are then centrifuged. The cell pellet is re-suspended in assay medium, centrifuged once more, and re-suspended in assay medium to a final density of 5×10^6 cells/mL. Coelenterazine-h dye (500 μM in ethanol) is added to a final concentration of 5 μM, and mixed immediately. The conical tube containing the cells is then wrapped with foil to protect the light-sensitive dye. The cells are incubated for four hours further at room temperature (approximately 21° C.) with end-over-end rotation to keep them in suspension.
Just before assay, the dye-loaded cells are diluted to 0.75×10^6 cells/mL (H1 receptor) or 1.5×10^6 cells/mL (H4 receptor) with additional assay medium. Cells are dispensed to 1536 well micro-titer plates at 3 μL/well. To assay receptor antagonism, 60 nl of 100× concentration test compounds in 100% dimethyl sulfoxide (DMSO) are dispensed to the wells, one compound per well, by passive pin transfer, and the plates are incubated for 15 minutes at room temperature. Assay plates are then transferred to a Lumilux bioluminescence plate reader (Perkin-Elmer) equipped with an automated 1536 disposable tip pipette. The pipette dispenses 3 μL/well of agonist (histamine, at twice the final concentration, where final concentration is a previously determined EC80) in assay medium, with concurrent bioluminescence detection. Agonist activity of test compounds is excluded by separate assays that measure response to test compounds immediately, without added histamine agonist.
CCD image capture on the Lumilux includes a 5 second baseline read prior to agonist addition, and generally a 40 second read per plate after agonist addition. A decrease in bioluminescence signal (measured either as area-under-the-curve, or maximum signal amplitude minus minimum signal amplitude) correlates with receptor antagonism in a dose dependent manner. The negative control is DMSO lacking any test compound. For antagonist assays, the positive controls are diphenhydramine (2-Diphenylmethoxy-N,N-dimethylethylamine, 10 μM final concentration, H1 receptor) or JNJ7777120 (1-[(5-Chloro-1H-indol-2-yl)carbonyl]-4-methyl-piperazine, 10 μM final concentration, H4 receptor). Efficacy is measured as a percentage of positive control activity.

T1 sequence (Q9H3N8 whole entry): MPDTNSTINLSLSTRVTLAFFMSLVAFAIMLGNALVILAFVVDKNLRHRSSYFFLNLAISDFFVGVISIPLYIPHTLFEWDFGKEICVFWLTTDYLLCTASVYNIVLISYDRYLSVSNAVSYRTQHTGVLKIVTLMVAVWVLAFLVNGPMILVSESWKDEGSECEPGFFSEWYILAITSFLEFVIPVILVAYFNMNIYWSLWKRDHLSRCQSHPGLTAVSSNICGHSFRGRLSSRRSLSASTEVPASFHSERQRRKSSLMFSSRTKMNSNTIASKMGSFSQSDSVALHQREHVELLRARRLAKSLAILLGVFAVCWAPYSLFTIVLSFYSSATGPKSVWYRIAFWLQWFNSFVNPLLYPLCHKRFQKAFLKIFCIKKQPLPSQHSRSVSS
T2 sequence (P35367 whole entry): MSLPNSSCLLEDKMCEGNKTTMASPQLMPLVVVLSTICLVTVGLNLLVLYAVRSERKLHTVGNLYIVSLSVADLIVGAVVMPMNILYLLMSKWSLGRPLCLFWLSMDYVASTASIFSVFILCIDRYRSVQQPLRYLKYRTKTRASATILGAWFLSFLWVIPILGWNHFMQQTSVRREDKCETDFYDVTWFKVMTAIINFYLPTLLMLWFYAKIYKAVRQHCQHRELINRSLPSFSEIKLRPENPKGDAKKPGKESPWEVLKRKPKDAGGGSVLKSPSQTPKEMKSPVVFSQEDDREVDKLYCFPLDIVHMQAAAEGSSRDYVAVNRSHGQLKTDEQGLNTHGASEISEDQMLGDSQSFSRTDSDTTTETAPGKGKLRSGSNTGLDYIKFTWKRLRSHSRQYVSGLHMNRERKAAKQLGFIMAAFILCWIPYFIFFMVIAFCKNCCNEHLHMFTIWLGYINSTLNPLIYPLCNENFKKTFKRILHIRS

For `CN(C)CCN(C)c1nc2ccc(Cl)cc2n2cnnc12` [Example 78, N^1-(8-chloro-[1,2,4]triazolo[4,3-a]quinoxalin-4-yl)-N^1,N^2,N^2-trimethylethane-1,2-diamine], the EC50 on human H4 and on human H1 was over 10 µM throughout.
On to `CN(CCN)c1nc2ccc(Cl)cc2n2cnnc12` [Example 79, N^1-(8-chloro-[1,2,4]triazolo[4,3-a]quinoxalin-4-yl)-N-1-methylethane-1,2-diamine], for which the EC50 at human H4 and on human H1 was over 10 µM in each case.
Turning to `CNCCOc1nc2ccc(Cl)cc2n2cnnc12` [Example 80, 2-(8-chloro-[1,2,4]triazolo[4,3-a]quinoxalin-4-yloxy)-N-methylethanamine], the EC50 at human H4 and at human H1 was over 10 µM each time.
Consider `NC1CCN(c2nc3ccc(Cl)cc3n3cnnc23)CC1` [Example 81, 1-(8-chloro-[1,2,4]triazolo[4,3-a]quinoxalin-4-yl)piperidin-4-amine], for which the EC50 at human H4 and at human H1 was over 10 µM throughout.
On to `CC1(C)CN(c2nc3ccc(Cl)cc3n3cnnc23)CCN1` [Example 82, 8-chloro-4-(3,3-dimethylpiperazin-1-yl)-[1,2,4]triazolo[4,3-a]quinoxaline], for which the EC50 on human H4 was under 10 µM; at human H1, over 10 µM.
The matching figures for `C[C@@H]1CN(c2nc3ccc(Cl)cc3n3cnnc23)C[C@H](C)N1` [Example 83, 8-chloro-4-((3S,5R)-3,5-dimethylpiperazin-1-yl)-[1,2,4]triazolo[4,3-a]quinoxaline]: over 10 µM and over 10 µM.
For the compound `Cc1nnc2c(N3CCN(C)CC3)nc3ccc(Cl)cc3n12` [Example 84, 8-chloro-1-methyl-4-(4-methylpiperazin-1-yl)-[1,2,4]triazolo[4,3-a]quinoxaline], the values for the EC50 on human H4 and on human H1 were under 10 µM and over 10 µM, respectively.
Take `Cc1nnc2c(N3CCNCC3)nc3ccc(Cl)cc3n12` [Example 85, 8-chloro-1-methyl-4-(piperazin-1-yl)-[1,2,4]triazolo[4,3-a]quinoxaline]: the EC50 on human H4 and on human H1 was over 10 µM in each case.
`CCc1nnc2c(N3CCN(C)CC3)nc3ccc(Cl)cc3n12` [Example 86, 8-chloro-1-ethyl-4-(4-methylpiperazin-1-yl)-[1,2,4]triazolo[4,3-a]quinoxaline]: the EC50 on human H4 was under 10 µM; on human H1, over 10 µM.
In the case of `CC(C)c1nnc2c(N3CCN(C)CC3)nc3ccc(Cl)cc3n12` [Example 87, 8-chloro-1-isopropyl-4-(4-methylpiperazin-1-yl)-[1,2,4]triazolo[4,3-a]quinoxaline], the EC50 is under 10 µM at human H4 and over 10 µM on human H1.
The matching figures for `C=Cc1ccc2nc(N3CCN(C)CC3)c3nncn3c2c1` [Example 88, 4-(4-methylpiperazin-1-yl)-8-vinyl-[1,2,4]triazolo[4,3-a]quinoxaline]: under 10 µM and over 10 µM.
The matching figures for `C=Cc1ccc2nc(N3CCNCC3)c3nncn3c2c1` [Example 89, 4-(piperazin-1-yl)-8-vinyl-[1,2,4]triazolo[4,3-a]quinoxaline]: under 10 µM and over 10 µM.
The like results for `CCc1ccc2nc(N3CCN(C)CC3)c3nncn3c2c1` [Example 90, 8-ethyl-4-(4-methylpiperazin-1-yl)-[1,2,4]triazolo[4,3-a]quinoxaline] were, in that order, under 10 µM and over 10 µM.
`CCc1ccc2nc(N3CCNCC3)c3nncn3c2c1` [Example 91, 8-ethyl-4-(piperazin-1-yl)-[1,2,4]triazolo[4,3-a]quinoxaline]: the EC50 at human H4 was under 10 µM; on human H1 it was over 10 µM.
The like results for `Clc1ccc2nc(N3CCNCC3)n3ncnc3c2c1` [Example 92, 9-Chloro-5-(piperazin-1-yl)-[1,2,4]triazolo[1,5-c]quinazoline] were, in that order, under 10 µM and over 10 µM.
The like results for `Cc1nc2c3cc(Cl)c(Cl)cc3nc(N3CCN(C)CC3)n2n1` [Example 93, 8,9-Dichloro-2-methyl-5-(4-methylpiperazin-1-yl)-[1,2,4]triazolo[1,5-c]quinazoline] were, in that order, under 10 µM and over 10 µM.
The matching figures for `Cc1nc2c3cc(Cl)c(Cl)cc3nc(N3CCNCC3)n2n1` [Example 94, 8,9-Dichloro-2-methyl-5-(piperazin-1-yl)-[1,2,4]triazolo[1,5-c]quinazoline]: under 10 µM and over 10 µM.
For `Cc1nc2c3cc(Cl)c(F)cc3nc(N3CCNCC3)n2n1` [Example 96, 9-Chloro-8-fluoro-2-methyl-5-(piperazin-1-yl)-[1,2,4]triazolo[1,5-c]quinazoline], the figures for the EC50 on human H4 and at human H1 were under 10 µM and over 10 µM, respectively.
The like results for `Cc1nc2c3cc(F)c(F)cc3nc(N3CCN(C)CC3)n2n1` [Example 97, 8,9-Difluoro-2-methyl-5-(4-methylpiperazin-1-yl)-[1,2,4]triazolo[1,5-c]quinazoline] were, in that order, under 10 µM and over 10 µM.
As for `Cc1nc2c3cc(F)c(F)cc3nc(N3CCNCC3)n2n1` [Example 98, 8,9-Difluoro-2-methyl-5-(piperazin-1-yl)-[1,2,4]triazolo[1,5-c]quinazoline], the EC50 was under 10 µM on human H4 and over 10 µM on human H1.
The like results for `Cc1ccc2nc(N3CCNCC3)n3nc(C)nc3c2c1` [Example 100, 2,9-Dimethyl-5-(piperazin-1-yl)-[1,2,4]triazolo[1,5-c]quinazoline] were, in that order, over 10 µM and over 10 µM.
The matching figures for `COc1ccc2nc(N3CCN(C)CC3)n3nc(C)nc3c2c1` [Example 101, 9-Methoxy-2-methyl-5-(4-methylpiperazin-1-yl)-[1,2,4]triazolo[1,5-c]quinazoline]: under 10 µM and over 10 µM.
On to `COc1ccc2nc(N3CCNCC3)n3nc(C)nc3c2c1` [Example 102, 9-Methoxy-2-methyl-5-(piperazin-1-yl)-[1,2,4]triazolo[1,5-c]quinazoline], for which the EC50 on human H4 and at human H1 was over 10 µM in each case.
With `Cc1nc2c3ccc(Cl)cc3nc(N3CCN(C)CC3)n2n1` [Example 105, 8-Chloro-2-methyl-5-(4-methylpiperazin-1-yl)-[1,2,4]triazolo[1,5-c]quinazoline], the values for the EC50 on human H4 and on human H1 were under 10 µM and over 10 µM, respectively.
The matching figures for `Cc1nc2c3ccc(Cl)cc3nc(N3CCNCC3)n2n1` [Example 106, 8-Chloro-2-methyl-5-(piperazin-1-yl)-[1,2,4]triazolo[1,5-c]quinazoline]: under 10 µM and over 10 µM.
The matching figures for `Cc1nc2c3ccc(F)cc3nc(N3CCN(C)CC3)n2n1` [Example 107, 8-Fluoro-2-methyl-5-(4-methylpiperazin-1-yl)-[1,2,4]triazolo[1,5-c]quinazoline]: under 10 µM and over 10 µM.
On to `Cc1nc2c3ccc(F)cc3nc(N3CCNCC3)n2n1` [Example 108, 8-Fluoro-2-methyl-5-(piperazin-1-yl)-[1,2,4]triazolo[1,5-c]quinazoline], for which the EC50 on human H4 and at human H1 was over 10 µM each time.
On to `Cc1nc2c3ccc(C(F)(F)F)cc3nc(N3CCNCC3)n2n1` [Example 110, 2-Methyl-5-(piperazin-1-yl)-8-(trifluoromethyl)-[1,2,4]triazolo[1,5-c]quinazoline], for which the figures for the concentration giving a half-maximal response (EC50) on human H4 and at human H1 were under 10 µM and over 10 µM, respectively.
The like results for `CN1CCN(c2nc3ccc(Cl)cc3c3ncnn23)CC1` [Example 111, 9-chloro-5-(4-methylpiperazin-1-yl)-[1,2,4]triazolo[1,5-c]quinazoline] were, in that order, under 10 µM and over 10 µM.
The like results for `CCc1nc2c3cc(Cl)ccc3nc(N3CCN(C)CC3)n2n1` [Example 114, 9-Chloro-2-ethyl-5-(4-methylpiperazin-1-yl)-[1,2,4]triazolo[1,5-c]quinazoline] were, in that order, under 10 µM and over 10 µM.
